Test results reported in patent publication US11517578B1, “Topical formulations containing erythritol and methods of treating skin conditions” (InnoMed Technologies, Inc., priority 2021, dated 2022).
Entries after “also recorded” stand apart in the source; their conditions may differ.

System: facial acne
Test: Topical treatment of facial acne in patients (case examples 1-3)
Assay type: in vivo, human
Conditions: patient history: OTC benzoyl peroxide gels and washes tried before the formulation
Text: In this example, a person visits a healthcare professional and complains of facial acne that has been persistent for the past three years. They describe sporadic facial breakouts that began gradually, varied in severity and never completely cleared. They explain that the breakouts contribute to feelings of low self-esteem.
The healthcare professional administers the formulation of erythritol and zinc to the patient. As detailed in Table 2, the formulation includes erythritol (3.75%) and zinc chloride (1.25%). The formulation allows for effective transdermal administration of the zinc chloride-erythritol mixture which can prevent or ameliorate bacterial growth at or near skin pores and hair follicles.
The patient is also advised to continue daily use of an OTC facial wash. After washing and rinsing the face, the patient applies the formulation to the entire face. After five to ten minutes, the face can be rinsed with water. The routine is repeated each day (i.e., twice per day). Within ten days, the acne is resolved by about 80% (i.e., about 80% of the acne is gone). The comedones, papules and pustules are less apparent and only visible at close proximity. The patient resumes twice daily use of the formulation. Within two weeks the signs/symptoms of acne are resolved by about 95%. The patient has a clear complexion. […]

O=C(OOC(=O)c1ccccc1)c1ccccc1 [benzoyl peroxide]
improvement of facial acne: without improvement; also recorded: minimal or no significant improvement
